Assay results from patent US10722501B2 (BAYER AKTIENGESELLSCHAFT, priority 2016, dated 2020).

The compounds below were run against T1, recombinant full-length human prolyl endopeptidase (PREP) (Homo sapiens, UniProt P48147) (assay: Biochemical human prolyl endopeptidase (PREP) assay with fluorescently labelled substrate). Details: substrate Z-Gly-Pro-AMC 50 μM, 32° C., 60 min; some as mean values from multiple independent determinations.
T1 construct: To recombinant full-length human prolyl endopeptidase (PREP, R&D-Systems, 4308-SE); purchased R&D-Systems 4308-SE
T1 sequence (P48147 1-710): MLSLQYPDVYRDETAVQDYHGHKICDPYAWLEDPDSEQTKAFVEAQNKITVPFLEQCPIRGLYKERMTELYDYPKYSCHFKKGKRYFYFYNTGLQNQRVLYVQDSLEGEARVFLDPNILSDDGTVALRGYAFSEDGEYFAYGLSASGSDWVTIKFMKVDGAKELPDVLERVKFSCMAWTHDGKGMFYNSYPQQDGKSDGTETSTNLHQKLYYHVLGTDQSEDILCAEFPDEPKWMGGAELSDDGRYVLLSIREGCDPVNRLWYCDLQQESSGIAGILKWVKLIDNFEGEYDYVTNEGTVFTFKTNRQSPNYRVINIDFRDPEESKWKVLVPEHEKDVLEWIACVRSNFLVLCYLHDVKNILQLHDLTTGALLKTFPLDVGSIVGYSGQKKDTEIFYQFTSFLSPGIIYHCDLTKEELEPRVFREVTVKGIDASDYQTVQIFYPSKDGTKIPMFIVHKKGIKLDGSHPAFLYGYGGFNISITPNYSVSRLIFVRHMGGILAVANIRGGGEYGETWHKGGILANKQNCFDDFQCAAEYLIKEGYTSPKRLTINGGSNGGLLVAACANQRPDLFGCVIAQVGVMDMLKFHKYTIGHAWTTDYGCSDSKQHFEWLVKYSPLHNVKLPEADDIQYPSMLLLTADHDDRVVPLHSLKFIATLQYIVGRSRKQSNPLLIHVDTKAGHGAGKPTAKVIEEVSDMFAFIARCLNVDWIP
In short: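 0.4 nM (final, example) recombinant PREP in pH 7.5 Tris buffer with EDTA, GSH, BSA and Brij-35; compounds at 1 nM to 30 μM. Reaction started with 50 μM Z-Gly-Pro-AMC and followed by fluorescence (ex 360/em 465 nm) at 32° C for 60 min. IC50 interpolated from percent activity based on initial slopes.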

First: O=C(C1C(C(F)(F)F)CCc2nn(Cc3ccnc(C(F)(F)F)c3F)c(=O)n21)N1CC(F)C1 (racemic) [Example 302, (5RS,6RS)-5-[(3-Fluoroazetidin-1-yl)carbonyl]-2-{[3-fluoro-2-(trifluoromethyl)pyridin-4-yl]methyl}-6-(trifluoromethyl)-5,6,7,8-tetrahydro[1,2,4]triazolo[4,3-a]pyridin-3(2H)-one]
Second: O=C(C1C(C(F)(F)F)CCc2nn(Cc3ccnc(C(F)(F)F)c3F)c(=O)n21)N1CC[C@H](F)C1 (mixture of isomers) [Example 280, (5RS,6RS)-5-{[(3S)-3-Fluoropyrrolidin-1-yl]carbonyl}-2-{[3-fluoro-2-(trifluoromethyl)pyridin-4-yl]methyl}-6-(trifluoromethyl)-5,6,7,8-tetrahydro[1,2,4]triazolo[4,3-a]pyridin-3(2H)-one]
The IC50 of the first is 13-fold higher: 49.5 nM for the first, 3.8 nM for the second. The second is the more potent here.

First: O=C([C@@H]1CCCc2nn(Cc3ccc(F)c(F)c3)c(=O)n21)N1C[C@@H](F)[C@@H](F)C1 [Example 467, (5S)-2-(3,4-Difluorobenzyl)-5-{[(3R,4S)-3,4-difluoropyrrolidin-1-yl]carbonyl}-5,6,7,8-tetrahydro[1,2,4]triazolo[4,3-a]pyridin-3(2H)-one]
Second: COc1ccc(Cn2nc3n(c2=O)[C@H](C(=O)N2C[C@@H](F)[C@@H](F)C2)CCC3)nc1 [Example 380, (5S)-5-{[(3R,4S)-3,4-Difluoropyrrolidin-1-yl]carbonyl}-2-[(5-methoxypyridin-2-yl)methyl]-5,6,7,8-tetrahydro[1,2,4]triazolo[4,3-a]pyridin-3(2H)-one]
The IC50 of the first is 4.3-fold lower: 0.49 nM for the first, 2.1 nM for the second. The first is the more potent here.

Compared with `O=C([C@@H]1CC=Cc2nn(Cc3ccc(C(F)(F)F)nc3)c(=O)n21)N1CC[C@H](F)C1` [Example 276, (5S)-5-{[(3S)-3-Fluoropyrrolidin-1-yl]carbonyl}-2-{[6-(trifluoromethyl)pyridin-3-yl]methyl}-5,6-dihydro[1,2,4]triazolo[4,3-a]pyridin-3(2H)-one], `O=C(C1CCc2nn(Cc3ccc(C(F)(F)F)nc3)c(=O)n21)N1CC(F)C1` (racemic) [Example 170, (5RS)-5-[(3-Fluoroazetidin-1-yl)carbonyl]-2-{[6-(trifluoromethyl)pyridin-3-yl]methyl}-2,5,6,7-tetrahydro-3H-pyrrolo[2,1-c][1,2,4]triazol-3-one] is 25-fold higher in IC50: 3.6 nM for the first, 90 nM for the second.

Going from `O=C(C1CCCc2nn(Cc3cccc(C(F)(F)F)c3F)c(=O)n21)N1CCCC1` (racemic) [Example 71] to `O=C(C1CCCc2nn(Cc3ccc(OC(F)(F)F)c(Cl)c3)c(=O)n21)N1CCCC1` (racemic) [Example 73, (5RS)-2-[3-Chloro-4-(trifluoromethoxy)benzyl]-5-(pyrrolidin-1-ylcarbonyl)-5,6,7,8-tetrahydro[1,2,4]triazolo[4,3-a]pyridin-3(2H)-one], the IC50 rises from 0.71 nM to 1.5 nM (2.1-fold). The first is the more potent here.

Compared with `Cc1ccc(Cn2nc3n(c2=O)C(C(=O)N2C[C@H]4C[C@H]4C2)CCC3)cc1` (mixture of isomers) [Example 126, (5RS)-5-[(cis)-3-Azabicyclo[3.1.0]hex-3-ylcarbonyl]-2-(4-methylbenzyl)-5,6,7,8-tetrahydro[1,2,4]triazolo[4,3-a]pyridin-3(2H)-one], `Cc1ccc(Cn2nc3n(c2=O)[C@H](C(=O)N2CCSC2)CCC3)cc1` [Example 108, (5S)-2-(4-Methylbenzyl)-5-(1,3-thiazolidin-3-ylcarbonyl)-5,6,7,8-tetrahydro[1,2,4]triazolo[4,3-a]pyridin-3(2H)-one] is 190-fold lower in IC50: 28.4 nM for the first, 0.15 nM for the second.

Going from `O=C([C@@H]1CCCc2nn(Cc3ccc(Cl)nc3)c(=O)n21)N1CC(F)C1` [Example 421, (5S)-2-[(6-Chloropyridin-3-yl)methyl]-5-[(3-fluoroazetidin-1-yl)carbonyl]-5,6,7,8-tetrahydro[1,2,4]triazolo[4,3-a]pyridin-3(2H)-one] to `O=C([C@@H]1CCCc2nn(Cc3ccc(C(F)(F)F)c(Cl)c3)c(=O)n21)N1CC(F)C1` [Example 459, (5S)-2-[3-Chloro-4-(trifluoromethyl)benzyl]-5-[(3-fluoroazetidin-1-yl)carbonyl]-5,6,7,8-tetrahydro[1,2,4]triazolo[4,3-a]pyridin-3(2H)-one], the IC50 falls from 0.91 nM to 0.2 nM (4.5-fold). The second is the more potent here.

First: O=C([C@@H]1CCCc2nn(Cc3ccnc(C(F)(F)F)c3F)c(=O)n21)N1CCC2CC21 (mixture of isomers) [Example 205, (5S)-5-[(1 RS,5SR)-2-Azabicyclo[3.1.0]hex-2-ylcarbonyl]-2-{[3-fluoro-2-(trifluoromethyl)pyridin-4-yl]methyl}-5,6,7,8-tetrahydro[1,2,4]triazolo[4,3-a]pyridin-3(2H)-one]
Second: O=C(C1CCc2nn(Cc3ccnc(C(F)(F)F)c3F)c(=O)n21)N1CC[C@H](F)C1 (mixture of isomers) [Example 178, (5RS)-5-{[(3S)-3-Fluoropyrrolidin-1-yl]carbonyl}-2-{[3-fluoro-2-(trifluoromethyl)pyridin-4-yl]methyl}-2,5,6,7-tetrahydro-3H-pyrrolo[2,1-c][1,2,4]triazol-3-one]
The IC50 of the first is 7.7-fold higher: 10 nM for the first, 1.3 nM for the second.

Going from `O=C([C@@H]1CCCc2nn(Cc3ccc(C(F)(F)F)nc3)c(=O)n21)N1CC(O)C1` [Example 428, (5S)-5-[(3-Hydroxyazetidin-1-yl)carbonyl]-2-{[6-(trifluoromethyl)pyridin-3-yl]methyl}-5,6,7,8-tetrahydro[1,2,4]triazolo[4,3-a]pyridin-3(2H)-one] to `O=C([C@@H]1CCCc2nn(Cc3nccc(C(F)(F)F)c3Cl)c(=O)n21)N1CC(O)C1` [Example 390, (5S)-2-{[3-Chloro-4-(trifluoromethyl)pyridin-2-yl]methyl}-5-[(3-hydroxyazetidin-1-yl)carbonyl]-5,6,7,8-tetrahydro[1,2,4]triazolo[4,3-a]pyridin-3(2H)-one], the IC50 falls from 53 nM to 13.5 nM (3.9-fold).

Compared with `O=C([C@@H]1CCCc2nn(Cc3nccc(C(F)(F)F)c3Cl)c(=O)n21)N1CC(F)C1` [Example 389, (5S)-2-{[3-Chloro-4-(trifluoromethyl)pyridin-2-yl]methyl}-5-[(3-fluoroazetidin-1-yl)carbonyl]-5,6,7,8-tetrahydro[1,2,4]triazolo[4,3-a]pyridin-3(2H)-one], `O=C(C1C(C(F)(F)F)CCc2nn(Cc3ccc(C(F)(F)F)nc3)c(=O)n21)N1CC(F)C1` (racemic) [Example 304, (5RS,6RS)-5-[(3-Fluoroazetidin-1-yl)carbonyl]-6-(trifluoromethyl)-2-{[6-(trifluoromethyl)pyridin-3-yl]methyl}-5,6,7,8-tetrahydro[1,2,4]triazolo[4,3-a]pyridin-3(2H)-one] is 24-fold higher in IC50: 1.45 nM for the first, 35 nM for the second. The first is the more potent here.

Going from `Cc1cc(C)c(Cn2nc3n(c2=O)[C@H](C(=O)N2CCCC2)CCC3)cc1C` [Example 102, (5S)-5-(Pyrrolidin-1-ylcarbonyl)-2-(2,4,5-trimethylbenzyl)-5,6,7,8-tetrahydro[1,2,4]triazolo[4,3-a]pyridin-3(2H)-one] to `O=C([C@@H]1CCCc2nn(Cc3ccc(F)c(Cl)c3)c(=O)n21)N1CCC2CC21` (single isomer, unassigned) [Example 203], the IC50 rises from 0.25 nM to 0.82 nM (3.3-fold).

Compared with `O=C(C1CC(C(F)(F)F)Cc2nn(Cc3ccc(Cl)nc3)c(=O)n21)N1CC[C@@H](F)C1` (single isomer, unassigned) [Example 246], `O=C(C1CC(C(F)(F)F)Cc2nn(Cc3cncc(Cl)c3)c(=O)n21)N1CC[C@H](F)C1` (single isomer, unassigned) [Example 318] is 400-fold higher in IC50: 1.3 nM for the first, 518 nM for the second. The first is the more potent here.

Going from `O=C(C1C(C(F)(F)F)CCc2nn(Cc3ncc(Cl)cc3F)c(=O)n21)N1C[C@@H](F)[C@@H](F)C1` (single isomer, unassigned) [Example 293] to `O=C(C1C(C(F)(F)F)CCc2nn(Cc3ccc(C(F)(F)F)nc3)c(=O)n21)N1CC[C@H](F)C1` (single isomer, unassigned) [Example 285], the IC50 falls from 85 nM to 1.3 nM (65-fold).

Compared with `COc1ccc(CCn2nc3n(c2=O)[C@H](C(=O)N2CCC(F)(F)C2)CCC3)cc1` [Example 346, (5S)-5-[(3,3-Difluoropyrrolidin-1-yl)carbonyl]-2-[2-(4-methoxyphenyl)ethyl]-5,6,7,8-tetrahydro[1,2,4]triazolo[4,3-a]pyridin-3(2H)-one], `O=C([C@@H]1CCCc2nn(CC3(c4ccc(C(F)(F)F)cc4)CC3)c(=O)n21)N1CC[C@H](F)C1` [Example 356, (5S)-5-{[(3S)-3-Fluoropyrrolidin-1-yl]carbonyl}-2-({1-[4-(trifluoromethyl)phenyl]cyclopropyl}methyl)-5,6,7,8-tetrahydro[1,2,4]triazolo[4,3-a]pyridin-3(2H)-one] is 14-fold lower in IC50: 4.2 nM for the first, 0.3 nM for the second.

`O=C(C1CC(C(F)(F)F)Cc2nn(Cc3ccc(C(F)(F)F)nc3)c(=O)n21)N1CC(F)C(F)C1` (racemic) [Example 582, (5RS,7RS)-5-{[rel-(3R,4R)-3,4-Difluoropyrrolidin-1-yl]carbonyl}-7-(trifluoromethyl)-2-{[6-(trifluoromethyl)pyridin-3-yl]methyl}-5,6,7,8-tetrahydro[1,2,4]triazolo[4,3-a]pyridin-3(2H)-one] was tested, and the IC50 was 140 nM.
